# Experimental data: US9833497B2, “Human originated EGF domain proteins and use of the same” (CHENGDU SOURCEBIO LIMITED-LIABILITY COMPANY, priority 2013, dated 2017)
# Tests used:
# Format in all cases: cell-based
# Proteus vulgaris = assay: MIC against Gram-negative bacteria: Proteus vulgaris; settings: 5×10^5 CFU/mL
# Outline: (§1)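 First, colonies from LB agar were grown in LB at 37° C, 185 rpm, to McFarland turbidity 0.5, then centrifuged and resuspended in fresh LB. Next, wells received 5×10^5 CFU/mL bacteria plus two-fold serially diluted EGF domain protein (triplicate). Finally, plates were shaken at 37° C and the no-growth concentration taken as MIC.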
# Moraxella catarrhalis = assay: MIC against Gram-negative bacteria: Moraxella catarrhalis; settings: 5×10^5 CFU/mL
# Outline: as §1
# Citrobacter diversus = assay: MIC against Gram-negative bacteria: Citrobacter diversus; settings: 5×10^5 CFU/mL
# Outline: as §1
# Enterobacter cloacae = assay: MIC against Gram-negative bacteria: Enterobacter cloacae; settings: 5×10^5 CFU/mL
# Outline: as §1
# Klebsiella pneumonia = assay: MIC against Gram-negative bacteria: Klebsiella pneumonia; settings: 5×10^5 CFU/mL
# Outline: as §1
# Aeromonas hydrophila = assay: MIC against Gram-negative bacteria: Aeromonas hydrophila; settings: 5×10^5 CFU/mL
# Outline: as §1
# E. coli DH5α = assay: Antibacterial activity: MIC and growth curve against E. coli DH5α in 96-well plate; settings: minimal inhibitory concentration against E. coli DH5α; 96-well plate, 5×10^5 CFU/mL, 37° C., judged after 8 h
# Outline: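 Log-phase bacteria (OD600 ~0.5) resuspended in LB at 5×10^5 CFU/mL, exposed to recombinant protein at 50, 25, 12.5 μg/mL final in triplicate, 37 °C shaking at 175 rpm. OD600 read every 30 min; MIC is lowest concentration showing no growth.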
# Serratia marcescens = assay: MIC against Gram-negative bacteria: Serratia marcescens; settings: 5×10^5 CFU/mL
# Outline: as §1
# Proteus mirabilis = assay: MIC against Gram-negative bacteria: Proteus mirabilis; settings: 5×10^5 CFU/mL
# Outline: as §1
# Pseudomonas aeruginosa = assay: MIC against Gram-negative bacteria: Pseudomonas aeruginosa; settings: 5×10^5 CFU/mL
# Outline: as §1
# E. coli BL21 = assay: MIC against Gram-negative bacteria: E. coli BL21; settings: 5×10^5 CFU/mL
# Outline: as §1
# [1] = P. vulgaris, 10 h cultivation at 37° C.
# [2] = M. catarrhalis, 10 h cultivation at 37° C.
# [3] = C. diversus, 10 h cultivation at 37° C.
# [4] = E. cloacae, 10 h cultivation at 37° C.
# [5] = K. pneumonia, 10 h cultivation at 37° C.
# [6] = A. hydrophila, 10 h cultivation at 37° C.
# [7] = S. marcescens, 10 h cultivation at 37° C.
# [8] = P. mirabilis, 10 h cultivation at 37° C.
# [9] = P. aeruginosa, 10 h cultivation at 37° C.
# [10] = Proteus vulgaris, 96-well plate, 37° C., 10 h
# [11] = Moraxella catarrhalis, 96-well plate, 37° C., 10 h
# [12] = Citrobacter diversus, 96-well plate, 37° C., 10 h
# [13] = Enterobacter cloacae, 96-well plate, 37° C., 10 h
# [14] = Klebsiella pneumonia, 96-well plate, 37° C., 10 h
# [15] = Aeromonas hydrophila, 96-well plate, 37° C., 10 h
# [16] = Serratia marcescens, 96-well plate, 37° C., 10 h
# [17] = Proteus mirabilis, 96-well plate, 37° C., 10 h
# [18] = Pseudomonas aeruginosa, 96-well plate, 37° C., 10 h
# [19] = 10 h cultivation at 37° C., two-fold serial dilution
substance,measurement,setting,value
PRT711 (GDNMCRVNNGGCSTLCLAIPGGRVCACADNQLLDENGTTCT; listed as Homo sapiens),MIC P. vulgaris,"Proteus vulgaris; 96-well plate, 37° C., 10 h",25 µg/mL
same,MIC M. catarrhalis,"Moraxella catarrhalis; 96-well plate, 37° C., 10 h",50 µg/mL
same,MIC C. diversus,"Citrobacter diversus; 96-well plate, 37° C., 10 h",12.5 µg/mL
same,MIC E. cloacae,"Enterobacter cloacae; 96-well plate, 37° C., 10 h",25 µg/mL
same,MIC K. pneumonia,"Klebsiella pneumonia; 96-well plate, 37° C., 10 h",12.5 µg/mL
same,MIC A. hydrophila,"Aeromonas hydrophila; 96-well plate, 37° C., 10 h",50 µg/mL
same,MIC,E. coli DH5α,25 µg/mL
same,MIC S. marcescens,"Serratia marcescens; 96-well plate, 37° C., 10 h",50 µg/mL
same,MIC P. mirabilis,"Proteus mirabilis; 96-well plate, 37° C., 10 h",12.5 µg/mL
same,MIC P. aeruginosa,"Pseudomonas aeruginosa; 96-well plate, 37° C., 10 h",50 µg/mL
same,MIC E. coli BL21,"E. coli BL21; 96-well plate, 37° C., 10 h",12.5 µg/mL
PRT820 (YGDNCRHSCLCQNGGTCDPVSGHCACPEGWAGLACE; listed as Homo sapiens),MIC (μg/mL) P. vulgaris,Proteus vulgaris; [1],12.5 µg/mL
same,MIC (μg/mL) M. catarrhalis,Moraxella catarrhalis; [2],50 µg/mL
same,MIC (μg/mL) C. diversus,Citrobacter diversus; [3],12.5 µg/mL
same,MIC (μg/mL) E. cloacae,Enterobacter cloacae; [4],12.5 µg/mL
same,MIC (μg/mL) K. pneumonia,Klebsiella pneumonia; [5],50 µg/mL
same,MIC (μg/mL) A. hydrophila,Aeromonas hydrophila; [6],50 µg/mL
same,MIC,E. coli DH5α,12.5 µg/mL
same,MIC (μg/mL) S. marcescens,Serratia marcescens; [7],25 µg/mL
same,MIC (μg/mL) P. mirabilis,Proteus mirabilis; [8],12.5 µg/mL
same,MIC (μg/mL) P. aeruginosa,Pseudomonas aeruginosa; [9],12.5 µg/mL
same,MIC (μg/mL) E. coli BL21,E. coli BL21; 10 h cultivation at 37° C.,50 µg/mL
PRT855 (DVDECATGRASCPRFRQCVNTFGSYICKCHKGFDLMYIGGKYQCH; listed as Homo sapiens),MIC (μg/mL) P. vulgaris,Proteus vulgaris; [1],12.5 µg/mL
same,MIC (μg/mL) M. catarrhalis,Moraxella catarrhalis; [2],12.5 µg/mL
same,MIC (μg/mL) C. diversus,Citrobacter diversus; [3],12.5 µg/mL
same,MIC (μg/mL) E. cloacae,Enterobacter cloacae; [4],12.5 µg/mL
same,MIC (μg/mL) K. pneumonia,Klebsiella pneumonia; [5],25 µg/mL
same,MIC (μg/mL) A. hydrophila,Aeromonas hydrophila; [6],50 µg/mL
same,MIC,E. coli DH5α,50 µg/mL
same,MIC (μg/mL) S. marcescens,Serratia marcescens; [7],12.5 µg/mL
same,MIC (μg/mL) P. mirabilis,Proteus mirabilis; [8],12.5 µg/mL
same,MIC (μg/mL) P. aeruginosa,Pseudomonas aeruginosa; [9],50 µg/mL
same,MIC (μg/mL) E. coli BL21,E. coli BL21; 10 h cultivation at 37° C.,12.5 µg/mL
PRT1213 (HSDYCSQNTCLNGGKCSWTHGAGYVCKCPPQFSGKHCE; listed as Homo sapiens),MIC against P. vulgaris,Proteus vulgaris; [10],50 µg/mL
same,MIC against M. catarrhalis,Moraxella catarrhalis; [11],12.5 µg/mL
same,MIC against C. diversus,Citrobacter diversus; [12],25 µg/mL
same,MIC against E. cloacae,Enterobacter cloacae; [13],100 µg/mL
same,MIC against K. pneumonia,Klebsiella pneumonia; [14],25 µg/mL
same,MIC against A. hydrophila,Aeromonas hydrophila; [15],50 µg/mL
same,MIC,E. coli DH5α,25 µg/mL
same,MIC against S. marcescens,Serratia marcescens; [16],25 µg/mL
same,MIC against P. mirabilis,Proteus mirabilis; [17],25 µg/mL
same,MIC against P. aeruginosa,Pseudomonas aeruginosa; [18],50 µg/mL
same,MIC against E. coli BL21,"E. coli BL21; 96-well plate, 37° C., 10 h",25 µg/mL
PRT1171 (NTNDCSPHPCYNSGTCVDGDNWYRCECAPGFAGPDCR; listed as Homo sapiens),MIC P. vulgaris,Proteus vulgaris; [19],50 µg/mL
same,MIC M. catarrhalis,Moraxella catarrhalis; [19],50 µg/mL
same,MIC C. diversus,Citrobacter diversus; [19],12.5 µg/mL
same,MIC E. cloacae,Enterobacter cloacae; [19],12.5 µg/mL
same,MIC K. pneumonia,Klebsiella pneumonia; [19],12.5 µg/mL
same,MIC A. hydrophila,Aeromonas hydrophila; [19],12.5 µg/mL
same,MIC,E. coli DH5α,12.5 µg/mL
same,MIC S. marcescens,Serratia marcescens; [19],25 µg/mL
same,MIC P. mirabilis,Proteus mirabilis; [19],12.5 µg/mL
same,MIC P. aeruginosa,Pseudomonas aeruginosa; [19],25 µg/mL
same,MIC E. coli BL21,E. coli BL21; [19],12.5 µg/mL
PRT1232 (IGQQCPNMCSGHGSCDHGICRCDQGYQGTECH; listed as Homo sapiens),MIC against P. vulgaris,Proteus vulgaris; [10],50 µg/mL
same,MIC against M. catarrhalis,Moraxella catarrhalis; [11],12.5 µg/mL
same,MIC against C. diversus,Citrobacter diversus; [12],25 µg/mL
same,MIC against E. cloacae,Enterobacter cloacae; [13],25 µg/mL
same,MIC against K. pneumonia,Klebsiella pneumonia; [14],12.5 µg/mL
same,MIC against A. hydrophila,Aeromonas hydrophila; [15],50 µg/mL
same,MIC,E. coli DH5α,50 µg/mL
same,MIC against S. marcescens,Serratia marcescens; [16],25 µg/mL
same,MIC against P. mirabilis,Proteus mirabilis; [17],25 µg/mL
same,MIC against P. aeruginosa,Pseudomonas aeruginosa; [18],25 µg/mL
same,MIC against E. coli BL21,"E. coli BL21; 96-well plate, 37° C., 10 h",25 µg/mL
PRT205 (SAHVCSQQCSGHGVCDSRNKCHCSPGYKPPNCQ; listed as Homo sapiens),MIC (μg/mL) P. vulgaris,Proteus vulgaris; [1],25 µg/mL
same,MIC (μg/mL) M. catarrhalis,Moraxella catarrhalis; [2],25 µg/mL
same,MIC (μg/mL) C. diversus,Citrobacter diversus; [3],12.5 µg/mL
same,MIC (μg/mL) E. cloacae,Enterobacter cloacae; [4],12.5 µg/mL
same,MIC (μg/mL) K. pneumonia,Klebsiella pneumonia; [5],25 µg/mL
same,MIC (μg/mL) A. hydrophila,Aeromonas hydrophila; [6],25 µg/mL
same,MIC,E. coli DH5α,12.5 µg/mL
same,MIC (μg/mL) S. marcescens,Serratia marcescens; [7],12.5 µg/mL
same,MIC (μg/mL) P. mirabilis,Proteus mirabilis; [8],12.5 µg/mL
same,MIC (μg/mL) P. aeruginosa,Pseudomonas aeruginosa; [9],12.5 µg/mL
same,MIC (μg/mL) E. coli BL21,E. coli BL21; 10 h cultivation at 37° C.,12.5 µg/mL
PRT35 (AMDLCARRLLDPCEHQCDPETGRREHRAAGECLCYEGYMKDPVHKHLCI; listed as Homo sapiens),MIC (μg/mL) P. vulgaris,Proteus vulgaris; [10],25 µg/mL
same,MIC (μg/mL) M. catarrhalis,Moraxella catarrhalis; [11],50 µg/mL
same,MIC (μg/mL) C. diversus,Citrobacter diversus; [12],12.5 µg/mL
same,MIC (μg/mL) E. cloacae,Enterobacter cloacae; [13],50 µg/mL
same,MIC (μg/mL) K. pneumonia,Klebsiella pneumonia; [14],12.5 µg/mL
same,MIC (μg/mL) A. hydrophila,Aeromonas hydrophila; [15],25 µg/mL
same,MIC,E. coli DH5α,12.5 µg/mL
same,MIC (μg/mL) S. marcescens,Serratia marcescens; [16],12.5 µg/mL
same,MIC (μg/mL) P. mirabilis,Proteus mirabilis; [17],12.5 µg/mL
same,MIC (μg/mL) P. aeruginosa,Pseudomonas aeruginosa; [18],25 µg/mL
same,MIC (μg/mL) E. coli BL21,"E. coli BL21; 96-well plate, 37° C., 10 h",50 µg/mL
PRT1374 (GVRQCPNDCSQHGVCQDGVCICWEGYVSEDC; listed as Homo sapiens),MIC against P. vulgaris,"Proteus vulgaris; Proteus vulgaris, 10 h cultivation at 37° C.",12.5 µg/mL
same,MIC against M. catarrhalis,"Moraxella catarrhalis; Moraxella catarrhalis, 10 h cultivation at 37° C.",12.5 µg/mL
same,MIC against C. diversus,"Citrobacter diversus; Citrobacter diversus, 10 h cultivation at 37° C.",12.5 µg/mL
same,MIC against E. cloacae,"Enterobacter cloacae; Enterobacter cloacae, 10 h cultivation at 37° C.",25 µg/mL
same,MIC against K. pneumonia,"Klebsiella pneumonia; Klebsiella pneumonia, 10 h cultivation at 37° C.",12.5 µg/mL
same,MIC against A. hydrophila,"Aeromonas hydrophila; Aeromonas hydrophila, 10 h cultivation at 37° C.",12.5 µg/mL
same,MIC,E. coli DH5α,50 µg/mL
same,MIC against S. marcescens,"Serratia marcescens; Serratia marcescens, 10 h cultivation at 37° C.",12.5 µg/mL
same,MIC against P. mirabilis,"Proteus mirabilis; Proteus mirabilis, 10 h cultivation at 37° C.",12.5 µg/mL
same,MIC against P. aeruginosa,"Pseudomonas aeruginosa; Pseudomonas aeruginosa, 10 h cultivation at 37° C.",25 µg/mL
same,MIC against E. coli BL21,E. coli BL21; 10 h cultivation at 37° C.,12.5 µg/mL
PRT1129 (PVTNCASSPCQNGGTCLQHTQVSYECLCKPEFTGLTCV; listed as Homo sapiens),MIC P. vulgaris,Proteus vulgaris; [19],12.5 µg/mL
same,MIC M. catarrhalis,Moraxella catarrhalis; [19],12.5 µg/mL
same,MIC C. diversus,Citrobacter diversus; [19],12.5 µg/mL
same,MIC E. cloacae,Enterobacter cloacae; [19],12.5 µg/mL
same,MIC K. pneumonia,Klebsiella pneumonia; [19],12.5 µg/mL
same,MIC A. hydrophila,Aeromonas hydrophila; [19],25 µg/mL
same,MIC,E. coli DH5α,50 µg/mL
same,MIC S. marcescens,Serratia marcescens; [19],12.5 µg/mL
same,MIC P. mirabilis,Proteus mirabilis; [19],12.5 µg/mL
same,MIC P. aeruginosa,Pseudomonas aeruginosa; [19],50 µg/mL
same,MIC E. coli BL21,E. coli BL21; [19],12.5 µg/mL
